Laboratory results from patent US5621102A, “Process for preparing enantiomerically pure xanthine derivatives” (Cell Therapeutics, Inc., priority 1995, dated 1997).

What was measured:
[1] = system: adhesion of activated U937 cells to HUVEC; test: adhesion of IL-1α activated U937 cells to non-stimulated HUVEC; assay type: cell-based, human; conditions: 250 μM pre-treatment of U937 cells
Procedure: U937 cells were stimulated with various concentrations of IL-1-α with or without the addition of 250 µM CT1501R one hour prior to addition of IL-1-α. Twelve hours later, the U937 cells were stained with BCECF and allowed to adhere to HUVEC. FIG. 22 is the relative BCECF fluorescence (+/-SD) for each of the treatment groups.
Murine peritoneal exudate cell macrophages (PEC) were isolated by perfusion of mouse peritoneum and plated into 96-well trays at 5×10^5 cells per well. Cells were stimulated with 5 μg/ml Salmonella abortus equi-derived endotoxin CLPS; Sigma Chemical Co., L-1887) or 50 ng/ml IL-1α (Genzyme; Cambridge, Mass.) with or without the addition of CT1501R added to the cultures one hour prior to addition of the stimulus. At various times thereafter, supernatants were removed and levels of either TNF-α or IL-1α were assayed using commercial 96-well microtiter immunoassay kits (Genzyme; TNF; Endogen, Boston, Mass.; IL-1α) according to manufacturer's specifications. […] After addition of […] Hanks Balanced Salt Solution (HBSS), the microtiter plate was then analyzed on a Millipore Cytofiuor fluorescent plate reader (excitation 488 nm; emission 525 nm). […]

smooth muscle cells = test: smooth muscle proliferation stimulated by PDGF and IL-1; assay type: cell-based
Excerpt: CT1501R and PTX were separately added to the cells two hours prior to activation with PDGF and IL-1.

IL-1α = test: mouse plasma IL-1α ELISA after endotoxin; assay type: in vivo, mice
Procedure: FIG. 7 illustrates data from mouse plasma IL-1α ELISA measurements. Data were compiled from an average of duplicate ELISA measurements from a single experiment with each point representing pooled serum from three mice.
For ELISA measurements of cytokine levels in plasma, blood was collected by retro-orbital or cardiac puncture of anesthetized mice, immediately centrifuged and the EDTA plasma stored at -70° C. Particulate free plasma was thawed on ice and cytokine levels determined utilizing commercial ELISA assays with normal mouse plasma used to generate standard curves. Murine tumor necrosis factor-α and interleukin-1α kits were purchased from Genzyme (Cambridge, Mass.) and Endogen (Boston, Mass.), respectively. Each data point was an average of two ELISA measurements made from EDTA serum pooled from three mice. The data summarized in Table 3 were compiled from two independent experiments; data from Table 4 and 5 were from single experiments of three mice per data point.
In particular, peak levels observed at 6, 12 and 18 hours post endotoxin were decreased 1.2, 4.3 and 3.2-fold, respectively. Finally, IL-6 measurements were made in a similar manner (Table 6, FIG. 8).

[2] = system: murine B-cell proliferation; test: B-cell proliferation assay (anti-mu antibody and/or IL-4); assay type: cell-based; conditions: stimulated by anti-mu antibody crosslinked and/or IL-4
Procedure: A B-cell proliferation assay determines the effect of the inventive compounds on inhibiting proliferation of stimulated B-cells, stimulated by an anti-mu antibody ([…]), IL-4 or PMA (2.5 nM). Ramos B-cell tumor cells or murine splenocytes can be incubated with a stimulating agent, an inventive compound and tritiated thymidine to measure inhibition of cell proliferation caused by the stimulating agent.

[3] = system: PBMC (peripheral blood mononuclear cells); test: two-way mixed lymphocyte reaction (MLR); assay type: cell-based, human
Excerpt: Various in vitro assays can be used to measure effects of the inventive compounds to module immune activity and have antitumor activity using a variety of cellular types. For example, a mixed lymphocyte reaction (MLR) provides a valuable screening tool to determine biological activity of each inventive compound. In the MLR, PBMCs (peripheral blood mononuclear cells) are obtained by drawing whole blood from healthy volunteers in a heparinized container and diluted with an equal volume of hanks balanced salt solution (HBSS). This mixture is layered on a sucrose density gradient, such as a Ficoll-Hypaque® gradient (specific gravity 1.08), and centrifuged at 1000×g for 25 minutes at room temperature or cooler. PBMC are obtained from a band at a plasma-Ficoll interface, separated and washed at least twice in a saline solution, such as HBSS. Contaminating red cells are lysed, such as by ACK lysis for 10 min at 37° C., and the PBMCs are washed twice in HBSS. The pellet of purified PBMCs is resuspended in complete medium, such as RPMI 1640 plus 20% human inactivated serum. Proliferative response of PBMC to allogeneic stimulation is determined in a two-way MLR performed in a 96-well microliter plate. […] At the conclusion of the incubation tritiated thymidine is added (for example, 1 μCi/well of 40 to 60 Ci/mmole) and proliferation determined by liquid scintillation counting. […]

Compound: C[C@@H](O)CCCCn1c(=O)c2c(ncn2C)n(C)c1=O [CT1501R, (R)-1-(5-hydroxyhexyl)-3,7-dimethylxanthine]
- IL-1α mediated increase in adhesion of U937 cells to HUVEC [1]: effectively blocked the IL-1α mediated increase in adhesion to HUVEC to near background levels
- activity compared with PTX, smooth muscle cell proliferation (smooth muscle cells): more active than PTX
- inhibition of smooth muscle cell proliferation (smooth muscle cells; drug added two hours prior to activation): inhibited smooth muscle cell proliferation at the higher doses tested
- decrease of peak plasma IL-1α vs endotoxin only (IL-1α; 6 hours post endotoxin): 1.2 fold
- decrease of peak plasma IL-1α vs endotoxin only (IL-1α; 12 hours post endotoxin): 4.3 fold
- decrease of peak plasma IL-1α vs endotoxin only (IL-1α; 18 hours post endotoxin): 3.2 fold
- inhibition of murine B-cell proliferation [2]: inhibited B-cell proliferation
- proliferative response of PBMC to allogeneic stimulation [3]: showed dose-response activity
